Results from patent publication US5663139A, “Inhibitors of retroviral proteases” (Hoechst Aktiengesellschaft, priority 1992, dated 1997).
Structures can show the parent of a compound that is named as a salt.

Each compound was assayed against T1, HIV protease (Human immunodeficiency virus type 1 group M subtype B, UniProt P04585) (assay: HIV protease enzyme test (HPLC cleavage of heptapeptide substrate H-Ser-Phe-Asn-Phe-Opr-Gln-Ile-OH)). Settings: inhibitor concentration at which the cleavage rate is halved, 37° C., 2 hours.
T1 construct: The HIV protease is composed of 99 amino acids and evidently excises itself out of the pol polyprotein
Type: biochemical
From the text: In particular, they inhibit HIV protease. Their enzyme-inhibitory effect, which is in the milli- to subnano-molar range, can be determined as follows.
The substrates of the HIV protease which have been employed thus far include the heptapeptide: H-Ser-Phe-Asn-Phe-Pro-Gln-Ile-OH (SEQ ID NO. 1) (P. L. Darke et al., Biophys. Res. Commun. 156 (1988) 297-303). When this peptide is used as the substrate, the HIV protease cleaves it between the second Phe and the Pro.
General instructions for testing inhibitors of the HIV proteases:
2 mg of H-Ser-Phe-Asn-Phe-Opr-Gln-Ile-OH (H-Opr-OH=5-oxaproline) (SEQ ID NO. 1) are dissolved in 1 ml of MGTE 15 buffer (use of ultrasonication if required) and this solution is subsequently filtered through a sterilizing filter (0.45 μm).
2.5 times the necessary quantity of inhibitor to give the desired molarity per ml of solution is weighed out and dissolved in DMSO (10% of the final volume). This solution is diluted with MGTE 15 buffer to the final volume and then filtered through a sterilizing filter (0.45 μm).
5 μl of the HIV protease solution are diluted with MGTE25 buffer as required.
In each case, 10 μl of the substrate solution are pipetted into a test tube (16×100) having a screw cap. 10 μl of MGTE 15 buffer, which contains 10% DMSO, are pipetted in for the blank experiment. 10 μl of the inihibitor solutions are added to each of the remaining test tubes. The tubes are incubated at 37° C. for 5-10 minutes and 5 μl of the protease solution are then added to each sample. Following reaction at 37° C. for 2 hours, 10 or 20 μl (depending on the sensitivity of the HPLC equipment) are pipetted out from each sample, added to microvials and diluted with 120 μl of the HPLC eluant.
e) Conditions for the HPLC Analysis
Under the conditions chosen for this experiment, the heptapeptide is separated from the N-terminal tetrapeptide resulting from the enzymic cleavage. The % content of tetrapeptide peak related to the sum of tetrapeptide+heptapeptide gives the cleavage rate. The following IC50 values indicate the inhibitor concentrations at which the cleavage rate is halved: […]

Point of comparison: CC(C)[C@H](NC(=O)OCc1ccccc1)C(=O)NC(Cc1ccccc1)C(O)P(=O)(O)C(Cc1ccccc1)NC(=O)[C@@H](NC(=O)OCc1ccccc1)C(C)C (stereo partly drawn) [Example 4, 1-{2-[(Benzyloxycarbonyl-L-valyl)amino]-1-hydroxy-3-phenylpropyl},1-{-[(benzyloxycarbonyl-L-valyl)amino]-2-phenylethyl}phosphinic acid], IC50 1.3 nM. Against it:
- CC(C)[C@H](NC(=O)C(Cc1cccc2ccccc12)CS(=O)(=O)C(C)(C)C)C(=O)NC(Cc1ccccc1)C(O)P(=O)(O)C(Cc1ccccc1)NC(=O)[C@@H](NC(=O)C(Cc1cccc2ccccc12)CS(=O)(=O)C(C)(C)C)C(C)C (stereo partly drawn) [Example 10, 1-{2-[((2S(tert-Butylsulfonylmethyl)-3-(1-naphthyl)-propionyl)-L-valyl)amino]-1-hydroxy-3-phenylpropyl},1-{1-[((2S(tert-butylsulfonylmethyl)-3-(1-naphthyl)propionyl)-L-valyl)amino]-2-phenylethyl}phosphinic acid] — 3.2-fold higher, 4.2 nM
- CCOP(=O)(C(Cc1ccccc1)NC(=O)[C@@H](NC(=O)OCc1ccccc1)C(C)C)C(O)C(Cc1ccccc1)NC(=O)[C@@H](NC(=O)OCc1ccccc1)C(C)C (some centres unmarked) [Example 3] — 54-fold higher, 70 nM
- CCOP(=O)(C(Cc1ccccc1)NC(=O)[C@@H](NC(=O)[C@@H](N)Cc1cccc2ccccc12)C(C)C)C(O)C(Cc1ccccc1)NC(=O)[C@@H](NC(=O)[C@@H](N)Cc1cccc2ccccc12)C(C)C (stereo partly drawn) [Example 7, Ethyl 1-{2-[(L-naphthylalanyl-L-valyl)amino]-1-hydroxy-3-phenylpropyl},1-{1-[(L-naphthylalanyl-L-valyl)amino]-2-phenylethyl}phosphinate bistrifluoroacetate] — 12-fold higher, 15 nM
- CC(C)[C@H](NC(=O)[C@@H](N)Cc1cccc2ccccc12)C(=O)NC(Cc1ccccc1)C(O)P(=O)(O)C(Cc1ccccc1)NC(=O)[C@@H](NC(=O)[C@@H](N)Cc1cccc2ccccc12)C(C)C (stereo partly drawn) [Example 8, 1-{2-[(L-Naphthylalanyl-L-valyl)amino]-1-hydroxy-3-phenylpropyl},1-{1-[(L-naphthylalanyl-L-valyl)amino]-2-phenylethyl}phosphinic acid dihydrobromide] — 2.6-fold lower, 0.5 nM
